PubChem BioAssay AID1963981 (Molecular Pharmacology Branch, DTP, NCI, 2024)
pIC50: −log10 of the molar value.

Test system: 354836-022-R-J1-PDC multicell spheroid viability
Test: Anticancer human tumor 354836-022-R-J1-PDC patient-derived head and neck squamous cell carcinoma cell line growth inhibition [PI3K]
Settings: for pIC50: curve of first compound; for viability, T/C: stronger effect = lower value
Procedure, shortened: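 Combination activity was assessed by viability in multicellular tumor spheroids carrying HUVEC and MSC components. Agents were tested with PI3K inhibitors from a Cmax-based top dose (or 10 microM) downward in half-log increments.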

[1] = second compound 0.0316 µM, first compound 0.0316 µM
[2] = second compound 0.0316 µM, first compound 0.1 µM
[3] = second compound 0.0316 µM, first compound 0.316 µM
[4] = second compound 0.0316 µM, first compound 1 µM
[5] = second compound 0.0316 µM, first compound 3.16 µM
[6] = second compound 0.0316 µM, first compound 10 µM
[7] = second compound 0.1 µM, first compound 0.0316 µM
[8] = second compound 0.1 µM, first compound 0.1 µM
[9] = second compound 0.1 µM, first compound 0.316 µM
[10] = second compound 0.1 µM, first compound 1 µM
[11] = second compound 0.1 µM, first compound 3.16 µM
[12] = second compound 0.1 µM, first compound 10 µM
[13] = second compound 0.316 µM, first compound 0.0316 µM
[14] = second compound 0.316 µM, first compound 0.1 µM
[15] = second compound 0.316 µM, first compound 0.316 µM
[16] = second compound 0.316 µM, first compound 1 µM
[17] = second compound 0.316 µM, first compound 3.16 µM
[18] = second compound 0.316 µM, first compound 10 µM
[19] = second compound 1 µM, first compound 0.0316 µM
[20] = second compound 1 µM, first compound 0.1 µM
[21] = second compound 1 µM, first compound 0.316 µM
[22] = second compound 1 µM, first compound 1 µM
[23] = second compound 1 µM, first compound 3.16 µM
[24] = second compound 1 µM, first compound 10 µM
[25] = second compound 3.16 µM, first compound 0.0316 µM
[26] = second compound 3.16 µM, first compound 0.1 µM
[27] = second compound 3.16 µM, first compound 0.316 µM
[28] = second compound 3.16 µM, first compound 1 µM
[29] = second compound 3.16 µM, first compound 3.16 µM
[30] = second compound 3.16 µM, first compound 10 µM
[31] = second compound 10 µM, first compound 0.0316 µM
[32] = second compound 10 µM, first compound 0.1 µM
[33] = second compound 10 µM, first compound 0.316 µM
[34] = second compound 10 µM, first compound 1 µM
[35] = second compound 10 µM, first compound 3.16 µM
[36] = second compound 10 µM, first compound 10 µM
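Note: spheroids exposed to agents for seven days before the viability read.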

## CC1(C)CCC(CN2CCN(c3ccc(C(=O)NS(=O)(=O)c4ccc(NCC5CCOCC5)c([N+](=O)[O-])c4)c(Oc4cnc5[nH]ccc5c4)c3)CC2)=C(c2ccc(Cl)cc2)C1 + Cc1nc(NC(=O)N2CCCC2C(N)=O)sc1-c1ccnc(C(C)(C)C(F)(F)F)c1
Second compound 0.0316 µM
  pIC50: 5.34
Second compound 0.1 µM
  pIC50: 5.39
Second compound 0.316 µM
  pIC50: 5.37
Second compound 1 µM
  pIC50: 5.37
Second compound 3.16 µM
  pIC50: 5.56
Second compound 10 µM
  pIC50: > 7.50
[1]
  viability, T/C: 99.3%
[2]
  viability, T/C: 82.3%
[3]
  viability, T/C: 94.3%
[4]
  viability, T/C: 91.7%
[5]
  viability, T/C: 70.1%
[6]
  viability, T/C: 5.83%
[7]
  viability, T/C: 109%
[8]
  viability, T/C: 93%
[9]
  viability, T/C: 97.1%
[10]
  viability, T/C: 100%
[11]
  viability, T/C: 63%
[12]
  viability, T/C: 4.78%
[13]
  viability, T/C: 99.7%
[14]
  viability, T/C: 86.4%
[15]
  viability, T/C: 79.5%
[16]
  viability, T/C: 91.9%
[17]
  viability, T/C: 65.4%
[18]
  viability, T/C: 6.04%
[19]
  viability, T/C: 83.7%
[20]
  viability, T/C: 79.6%
[21]
  viability, T/C: 88.4%
[22]
  viability, T/C: 79.7%
[23]
  viability, T/C: 67%
[24]
  viability, T/C: 4.76%
[25]
  viability, T/C: 68.3%
[26]
  viability, T/C: 66.5%
[27]
  viability, T/C: 72.1%
[28]
  viability, T/C: 60.8%
[29]
  viability, T/C: 48.8%
[30]
  viability, T/C: 4.11%
[31]
  viability, T/C: 38.1%
[32]
  viability, T/C: 39.8%
[33]
  viability, T/C: 43.8%
[34]
  viability, T/C: 37.4%
[35]
  viability, T/C: 34.6%
[36]
  viability, T/C: 7.88%

## CCCS(=O)(=O)Nc1ccc(F)c(C(=O)c2c[nH]c3ncc(-c4ccc(Cl)cc4)cc23)c1F + Cc1nc(NC(=O)N2CCCC2C(N)=O)sc1-c1ccnc(C(C)(C)C(F)(F)F)c1
Second compound 0.0316 µM
  pIC50: 5.22
Second compound 0.1 µM
  pIC50: 5.25
Second compound 0.316 µM
  pIC50: 5.27
Second compound 1 µM
  pIC50: 5.30
Second compound 3.16 µM
  pIC50: 5.46
Second compound 10 µM
  pIC50: > 7.50
[1]
  viability, T/C: 96.5%
[2]
  viability, T/C: 86.5%
[3]
  viability, T/C: 97.5%
[4]
  viability, T/C: 99.8%
[5]
  viability, T/C: 76.6%
[6]
  viability, T/C: 29.8%
[7]
  viability, T/C: 101%
[8]
  viability, T/C: 93.8%
[9]
  viability, T/C: 96.1%
[10]
  viability, T/C: 80.5%
[11]
  viability, T/C: 80.2%
[12]
  viability, T/C: 22.8%
[13]
  viability, T/C: 83.7%
[14]
  viability, T/C: 79.6%
[15]
  viability, T/C: 75.2%
[16]
  viability, T/C: 80%
[17]
  viability, T/C: 75.6%
[18]
  viability, T/C: 18.7%
[19]
  viability, T/C: 80.1%
[20]
  viability, T/C: 76.7%
[21]
  viability, T/C: 72%
[22]
  viability, T/C: 77%
[23]
  viability, T/C: 70.6%
[24]
  viability, T/C: 18%
[25]
  viability, T/C: 53.5%
[26]
  viability, T/C: 60.8%
[27]
  viability, T/C: 63.1%
[28]
  viability, T/C: 66.8%
[29]
  viability, T/C: 50.7%
[30]
  viability, T/C: 11.5%
[31]
  viability, T/C: 39.6%
[32]
  viability, T/C: 35.3%
[33]
  viability, T/C: 35.6%
[34]
  viability, T/C: 39.9%
[35]
  viability, T/C: 32%
[36]
  viability, T/C: 7.04%

## C[C@@H](NC(=O)c1ncnc(N)c1Cl)c1ncc(C(=O)Nc2cc(C(F)(F)F)c(Cl)cn2)s1 + Cc1nc(NC(=O)N2CCCC2C(N)=O)sc1-c1ccnc(C(C)(C)C(F)(F)F)c1
Second compound 0.0316 µM
  pIC50: < 5.00
Second compound 0.1 µM
  pIC50: < 5.00
Second compound 0.316 µM
  pIC50: < 5.00
Second compound 1 µM
  pIC50: < 5.00
Second compound 3.16 µM
  pIC50: < 5.00
Second compound 10 µM
  pIC50: > 7.50
[1]
  viability, T/C: 103%
[2]
  viability, T/C: 78.6%
[3]
  viability, T/C: 95.9%
[4]
  viability, T/C: 87.3%
[5]
  viability, T/C: 86.6%
[6]
  viability, T/C: 60.6%
[7]
  viability, T/C: 94.6%
[8]
  viability, T/C: 95.4%
[9]
  viability, T/C: 98%
[10]
  viability, T/C: 97.2%
[11]
  viability, T/C: 96.7%
[12]
  viability, T/C: 66.2%
[13]
  viability, T/C: 77.7%
[14]
  viability, T/C: 89.7%
[15]
  viability, T/C: 86.5%
[16]
  viability, T/C: 90.8%
[17]
  viability, T/C: 89.6%
[18]
  viability, T/C: 77.8%
[19]
  viability, T/C: 65.3%
[20]
  viability, T/C: 87.1%
[21]
  viability, T/C: 76.4%
[22]
  viability, T/C: 75.3%
[23]
  viability, T/C: 78.4%
[24]
  viability, T/C: 67.7%
[25]
  viability, T/C: 53.9%
[26]
  viability, T/C: 59.8%
[27]
  viability, T/C: 70.1%
[28]
  viability, T/C: 59.7%
[29]
  viability, T/C: 66.5%
[30]
  viability, T/C: 37.8%
[31]
  viability, T/C: 32.1%
[32]
  viability, T/C: 38.4%
[33]
  viability, T/C: 37.8%
[34]
  viability, T/C: 39.2%
[35]
  viability, T/C: 36.1%
[36]
  viability, T/C: 16.7%
